This is an account of results in publication PMC7250851, “Discovery of a new sialic acid binding region that regulates Siglec-7” (Scientific Reports, 2020).

One may read the IC50 as the point on the concentration scale where inhibition reaches its midpoint. Lower therefore signals greater potency.

“Also recorded” adds a separate entry of the source.

Assay [1] deals with T1, Siglec-7V R67A.
T1 construct: DNA fragments encoding human Siglec-7 V-set domain (residues 18–144) and the mutants were sub-cloned into the pCold-PDI vector; (His)6-PDI (cleaved yes); made in house; host or cells: Escherichia coli Origami B (DE3)
Kind of assay: STD-NMR and 1H-NMR titration. It counts as binding, human. Conditions: protein:ligand 1:20, 10 °C, pH 7.9. Here is the method:
(§1) Recombinant human Siglec-7 V-set domain and its mutants (R67A, R124A, R67K) were prepared using the pCold-PDI vector as previously described with modifications. DNA fragments encoding human Siglec-7 V-set domain (residues 18–144) and the mutants were sub-cloned into the pCold-PDI vector. The plasmids were transformed into Escherichia coli Origami B (DE3) (Novagen), and the cells were grown at 37 °C in LB medium. After induction with isopropyl β-D-thiogalactoside (0.5 mM), the cells were cultured at 15 °C for further 16 h. Then the cells were harvested and sonicated in 20 mM Tris-HCl (pH 8.0), and containing 0.1 M NaCl and 0.1 mM EDTA. After centrifugation, the supernatant containing (His)6-PDI-fused protein was collected and applied to a Ni sepharose column (GE healthcare) equilibrated with 20 mM Tris-HCl (pH 8.0), and containing 0.1 M NaCl. After washing with 20 mM Tris-HCl (pH 8.0) containing 0.1 M NaCl and 20 mM imidazole, the protein was eluted with 20 mM Tris-HCl (pH 8.0) containing 0.1 M NaCl and 500 mM imidazole. The (His)6-PDI-fused protein was extensively dialysed against 50 mM Tris-HCl (pH 8.0) containing 0.1 M NaCl, 5 mM reduced glutathione, 0.5 mM oxidised glutathione, and 10% glycerol. The protein was then digested with TEV protease to remove the (His)6-PDI tag. The digested proteins were passed through the Ni sepharose column and the final purification was performed with a Hiroad Superdex 75 pg size exclusion column (GE healthcare) equilibrated with 20 mM Tris-HCl (pH 8.0) containing 0.1 M NaCl.
(§2) NMR spectra were collected using the DRX-600 (600 MHz) spectrometer (Bruker; Billerica, MA, US) equipped with a TXI-probe. The probe temperature was set at 283 K. Siglec-7 V-set domains (WT, R124A, R67A) were prepared with 10 mM phosphate buffer including 150 mM NaCl in D2O (D: 99%). The final protein concentration before addition of the ligand was 55 μM (pH 7.9). The 5.5 mM diSia and triSia solutions (pH 7.9) in PBS were gradually added into the protein solution to achieve the protein:ligand molar ratios of 1:0, 1:1, 1:2, 1:5, 1:10, and 1:20; the ^1H-NMR spectra were obtained with the WATERGATE pulse sequence in each protein:ligand ratio. Data were collected for 1024 scans by suppressing the residual HDO signal to 3-9-19 pulse train. Saturation Transfer Difference (STD) NMR experiments were performed at the protein:ligand ratio of 1:20. The protein signal was saturated on resonance at 0.15 ppm and off resonance at 40 ppm with a cascade of 60 selective Gaussian shaped pulses of 50 ms duration and 3 s saturation in total. The WATERGATE pulse sequence was used to suppress the residual HDO signal, and a spin-lock filter with a strength of 8 kHz and a duration of 10 ms was applied to suppress protein background signal. All STD NMR experiments were collected for 1024 scans with an inter pulse delay of 100 μs. The Sias signal assignments have been previously described by Jennings et al.[34].

In assay [2] the test system is T2, Siglec-7V WT.
T2 construct: DNA fragments encoding human Siglec-7 V-set domain (residues 18–144) and the mutants were sub-cloned into the pCold-PDI vector; (His)6-PDI (cleaved yes); made in house; host or cells: Escherichia coli Origami B (DE3)
As to the kind of experiment: STD-NMR and 1H-NMR titration. It counts as binding, human. The conditions noted are these: protein:ligand 1:20, 10 °C, pH 7.9. The protocol: as §1, §2

Assay [3] relates to T3, Siglec-7V R124A.
T3 construct: DNA fragments encoding human Siglec-7 V-set domain (residues 18–144) and the mutants were sub-cloned into the pCold-PDI vector; (His)6-PDI (cleaved yes); made in house; host or cells: Escherichia coli Origami B (DE3)
As to the kind of experiment: STD-NMR and 1H-NMR titration. It counts as binding, human. The conditions noted are these: protein:ligand 1:20, 10 °C, pH 7.9. The protocol:
as §1, §2

Assay [4] has as its target T4, GD3-Siglec-7EcFc interaction (Homo sapiens, UniProt Q9Y286).
T4 construct: the extracellular domain of Siglec-7 fused with the human IgG1 Fc region; made in house
Kind of assay: Inhibition of GD3-Siglec-7EcFc binding (ELISA, double reciprocal plots). Conditions: for Inhibition type: double reciprocal plots. The protocol: (§3) For ganglioside binding assay, 96-well plates (Nunc, Roskilde, Denmark) were coated with 50 μL/well of 0–6.0 µM ganglioside in ethanol and left to air dry overnight or at 37 °C for 2 h. The wells were washed three times with TBS and blocked with 1% BSA (w/v) in TBS. Siglec-7-Fc fusion protein (64 pmol/mL) was pre-complexed with a 1/1000 dilution of horseradish peroxidase-conjugated goat anti-human IgG + M + A (American Qualex) for 30 min at room temperature, and 50 μL of reaction mixture was added to each well. After 2 h incubation at room temperature, the wells were washed extensively, then 100 µL of 0.05% o-phenylenediamine in 0.1 M Tris-HCl (pH 6.8) containing 0.006% H2O2 was added and incubated at room temperature. The absorbance was then measured at 490 nm (Bio-Rad, Hercules, CA) after the addition of 100 µL of 2 N sulphuric acid. For measurement of the inhibition toward GD3-Siglec-7 interaction, inhibitors (0–200 μM for octyl-α2,8-mono/di/tri/teraSia, 0–50 μM for tetradecyl-ganglioside glycan), Siglec-7, and peroxidase conjugated anti-human IgG + IgM + IgA were pre-incubated at 25 °C for 30 min, and the reaction mixture with or without inhibitor was used as described above. All experiments were performed three times.
(In general: In an ELISA, binding on a coated surface is turned into a signal by an enzyme label.)

Assay [5] deals with T5, Siglec-7EcFc (WT).
T5 construct: the extracellular domain of Siglec-7 fused with the human IgG1 Fc region; made in house
Kind of assay: ELISA binding of Siglec-7EcFc to immobilised gangliosides / (Neu5Ac)n-PE. Also on record: species or system human. Conditions: ligand coated on plastic wells. The protocol:
as §3

In assay [6] the test system is T6, Siglec-7EcFc (R92A).
T6 construct: the extracellular domain of Siglec-7 fused with the human IgG1 Fc region; made in house
The description is as above. More on the design: species or system human. Conditions: ligand coated on plastic wells, compared with WT. The protocol: as §3

Assay [7] has as its system T7, Siglec-7EcFc (R67A).
T7 construct: the extracellular domain of Siglec-7 fused with the human IgG1 Fc region; made in house
The assay is described as above. Also on record: species or system human. Conditions: ligand coated on plastic wells, compared with WT. The protocol:
as §3

The test system of assay [8] is T8, Siglec-7EcFc (R92K).
T8 construct: the extracellular domain of Siglec-7 fused with the human IgG1 Fc region; made in house
Described as above. Also on record: species or system human. The conditions noted are these: ligand coated on plastic wells, compared with WT. The protocol:
as §3

The test system of assay [9] is T9, Siglec-7EcFc (R67K).
T9 construct: the extracellular domain of Siglec-7 fused with the human IgG1 Fc region; made in house
Described as above. More on the design: species or system human. Conditions: ligand coated on plastic wells, compared with WT. The protocol: as §3

T4 sequence (Q9Y286 19-353 limits assumed): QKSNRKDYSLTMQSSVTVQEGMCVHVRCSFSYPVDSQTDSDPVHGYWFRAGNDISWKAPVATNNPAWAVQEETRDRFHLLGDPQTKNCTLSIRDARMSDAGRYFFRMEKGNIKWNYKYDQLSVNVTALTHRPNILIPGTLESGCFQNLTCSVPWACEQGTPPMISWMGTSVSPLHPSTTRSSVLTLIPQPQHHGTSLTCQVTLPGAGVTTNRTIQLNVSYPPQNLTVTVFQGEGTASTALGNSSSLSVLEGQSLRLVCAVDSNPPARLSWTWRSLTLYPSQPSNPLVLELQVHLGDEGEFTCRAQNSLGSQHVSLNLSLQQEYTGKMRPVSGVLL

Consider `CC(=O)NC1C(O)CC(OC(CO)C(O)C2OC(O)(C(=O)O)CC(O)C2NC(C)=O)(C(=O)O)OC1C(O)C(O)CO` (stereo not shown) [diSia, Neu5Acα(2-8)Neu5Ac-OH], for which the entries for the “binding in solution (STD-NMR)” value in assay [1], in [2] and in assay [3] were “obviously recognised”, “obviously recognised” and “very little or no interactions”, respectively.
On to `CC(=O)NC1C(O)CC(OC(CO)C(O)C2OC(OC(CO)C(O)C3OC(O)(C(=O)O)CC(O)C3NC(C)=O)(C(=O)O)CC(O)C2NC(C)=O)(C(=O)O)OC1C(O)C(O)CO` (stereo not shown) [triSia, Neu5Acα(2-8)Neu5Acα(2-8)Neu5Ac-OH], for which the “binding in solution (STD-NMR)” value is listed as “involved in binding” in assay [1], “involved in binding” in [2] and “very little or no interactions” in assay [3].
Take `CCCCCCCCOC1(C(=O)O)CC(O)C(NC(C)=O)C(C(O)C(CO)OC2(C(=O)O)CC(O)C(NC(C)=O)C(C(O)C(O)CO)O2)O1` (stereo not drawn) [α2,8-diSia]: in [4], the Inhibition type result is recorded as “competitive inhibition”. Also, the “inhibition activity toward Siglec-7EcFc-GD3 interaction” value in [4] (octyl glycosides, 0–200 μM) is listed as “the effect was weak”.
With `CCCCCCCCOC1(C(=O)O)CC(O)C(NC(C)=O)C(C(O)C(CO)OC2(C(=O)O)CC(O)C(NC(C)=O)C(C(O)C(CO)OC3(C(=O)O)CC(O)C(NC(C)=O)C(C(O)C(O)CO)O3)O2)O1` (stereo not drawn) [α2,8-triSia], the Inhibition type entry in assay [4] is “non-competitive inhibition”. In assay [4] (octyl glycosides, 0–200 μM, GD3-coated plate), this compound registered an IC50 of under 100 µM.
On to “Neu5Acα2 → 8Neu5Aα2 → 3Galβ1 → 4Glc-Cer [GD3]”, for which the “binding activity (ELISA)” value is reported as “higher binding activity” in [5]; “almost the same binding activity” in [6]; “significantly lower binding activity; also recorded: did not effectively bind” in [7]; “almost the same binding activity” in assay [8]; “significantly lower binding activity” in [9].
With Neu5Aα2 → 3Galβ1 → 4Glc-Cer [GM3], the “binding activity (ELISA)” value in assay [5] was “Almost no binding activity”.
